Data reported in patent publication US20230159509A1 (Amathus Therapeutics, Inc., priority 2020, published 2023).

What was measured:
TRAP1 enzyme = biological target: T1, TRAP1 enzyme (Homo sapiens, UniProt Q12931); test: ADP Glo assay of TRAP1 ATPase activity; assay type: biochemical
T1 construct: 150 nM Trap1 enzyme was incubated with various concentrations of the test compound
T1 sequence (Q12931 60-704): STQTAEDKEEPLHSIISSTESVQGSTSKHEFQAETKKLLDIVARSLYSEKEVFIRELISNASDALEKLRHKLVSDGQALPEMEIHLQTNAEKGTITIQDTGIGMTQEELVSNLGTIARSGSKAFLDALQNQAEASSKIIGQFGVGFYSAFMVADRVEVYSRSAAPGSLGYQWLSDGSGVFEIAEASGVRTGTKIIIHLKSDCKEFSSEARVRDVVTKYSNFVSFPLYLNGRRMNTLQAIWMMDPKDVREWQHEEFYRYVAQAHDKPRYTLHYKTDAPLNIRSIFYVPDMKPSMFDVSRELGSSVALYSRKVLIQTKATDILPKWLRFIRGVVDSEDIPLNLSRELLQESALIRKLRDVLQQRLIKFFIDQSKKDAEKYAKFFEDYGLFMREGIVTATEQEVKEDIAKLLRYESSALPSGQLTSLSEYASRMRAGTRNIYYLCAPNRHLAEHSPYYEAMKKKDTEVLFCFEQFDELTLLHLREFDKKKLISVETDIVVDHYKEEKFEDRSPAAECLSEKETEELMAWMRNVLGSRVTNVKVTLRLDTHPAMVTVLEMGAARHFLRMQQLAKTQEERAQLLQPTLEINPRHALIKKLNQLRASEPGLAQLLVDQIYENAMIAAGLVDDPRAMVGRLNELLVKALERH
In short: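 Compound (0.79–100 μM) was preincubated 30 min at 37° C with 150 nM TRAP1 in 25 mM Pipes pH 7.5, 40 mM KCl, 0.05 mM MgCl2. Reaction started with 20 μM ATP, 60 min at 37° C. ADP measured by luminescence against a standard curve; activation fitted sigmoidally for EC50 and Emax.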

mIMCD3 Pkd1 KO cells = test: Mouse cell derived cyst assay; assay type: cell-based; conditions: Pkd 1 KO mouse cell derived cyst forming assay; FIG. 16
Description: Mouse cell derived cyst assays were performed as described in Booij, Tijmen H et al., SLAS discovery: advancing life sciences R & D vol. 22.8 (2017): 974-984, or as described below.
Murine inner medullary collecting duct cell line (mIMCD3 Pkd1^−/− cells) • mIMCD3 Pkd1 KO cells were seeded in 384 wells plates in extracellular matrix. • 4 days after seeding, cultures were co-exposed to treatments and stimuli (2.5 μM forskolin); • After 72 h, cultures were fixed, stained for nuclei and actin cytoskeleton and imaged with 4× magnification; and • Image analysis of the 3D stack was done using Ominer™ image analysis software.

[1] = test system: tamoxifen-induced polycystic kidney disease model (Ksp-TamCre×PkdlLox); test: Tamoxifen-induced polycystic kidney disease mouse model; assay type: in vivo; conditions: compound 1206 10 mg/kg po QD 14d; for 2 KW/BW ratio (kidney weight/body weight): compared to tamoxifen-induced vehicle control group
Description: Compound 1206 (10 mg/kg po, QD dosing for 14d, n=13/group) was assessed in a tamoxifen-induced polycystic kidney disease model (Ksp-TamCre×PkdlLox; Human Molecular Genetics, 2007, Vol. 16, No. 24, 3188-3196). A negative control group induced with tamoxifen (Vehicle) and a negative control group not induced with tamoxifen (No Tam) were included. A positive control group was dosed with everolimus. Mice were dosed orally on both PND 10, 11 with 25 mg/kg tamoxifen. Oral dosage of vehicle, compound 1206, and everolimus started from PND 14 onwards to PND 27. The readouts of this study were body weight, kidney weight, BUN levels and histopathology assessment including cyst index.
The fixated kidney half was processed for paraffin embedding and further pathological assessment after hematoxylin-eosin staining. One piece of each H-E stained kidney half was observed by a board certified pathologist, who read a cross section of the kidney. For each kidney one section was evaluated. From this section an overview photo was taken (2X) and used to calculate the cystic index. The cystic areas were identified by a color thresholding method using an image analysis system (Image software, public domain software, NIH, Bethesda, Md.). The threshold area was calculated within a defined ROI (region of interest) representing the total area analyzed. This area represents at least 70-80% of the entire kidney section. The cystic index (CI) is defined as the percentage of the area of cysts lumen (in pixels) over the total kidney area in the selected ROI (in pixels).

[2] = compared with tamoxifen-induced vehicle control group

Row | EC50 (TRAP1 enzyme; concentration for half maximal activation, read-out: ADP GLO DRC: GeoMean EC50) | Emax (TRAP1 enzyme; maximal percent activation, read-out: ADP GLO DRC: Mean Emax) | Structure (SMILES) | cyst formation (mIMCD3 Pkd1 KO cells) | 2 KW/BW ratio (kidney weight/body weight) [1] | cystic index [1, 2] | urea levels (BUN) [1, 2]
1 | < 10 µM | 119 to 159% | COc1ncc(NC(=O)c2ccc3c(c2)n(C)c(=O)n3C)cc1S(=O)(=O)Nc1ccc(Cl)cc1 [compound 1206, N-(5-(N-(4-chlorophenyl)sulfamoyl)-6-methoxypyridin-3-yl)-1,3-dimethyl-2-oxo-2,3-dihydro-1H-benzo[d]imidazole-5-carboxamide] | preventing cyst formation | significantly lower | significantly lower | significantly lower
2 | – | – | CO[C@H]1C[C@@H]2CC[C@@H](C)[C@@](O)(O2)C(=O)C(=O)N2CCCC[C@H]2C(=O)O[C@H]([C@H](C)C[C@@H]2CC[C@@H](OCCO)[C@H](OC)C2)CC(=O)[C@H](C)/C=C(\C)[C@@H](O)[C@@H](OC)C(=O)[C@H](C)C[C@H](C)/C=C/C=C/C=C/1C [everolimus, reference compound] | – | significantly lower | significantly lower | –
